Tested on: carrageenan-induced acute inflammation in subcutaneous air pouch
Assay: Air Pouch Model II (Example 2)
Type: in vivo, mice
Method: In Table 6, “Dex” is an abbreviation for dexamethasone and “Dopamine” is a 4 mg/mL aqueous solution of dopamine hydrochloride (Shanghai Aladdin Bio-Chem Technology Co., Ltd., Shanghai, China).
The histological specimens were analysed and an inflammation score, an activity score and a fibroplastic proliferation score were estimated as in Example 1 above and are tabulated in Table 9 below.

[1] = Dex 400 μg, Dopamine 2 mg, MAP 250 μg, Mon 100 μg
[2] = doses/mouse: Dex 400 μg, Dopamine 2 mg, MAP 250 μg, Mon 100 μg

Structure (SMILES): Cl.NCCc1ccc(O)c(O)c1 [Dopamine, dopamine hydrochloride]
- Activity score [1]: 1.67
- Edema Score [1]: 2.33
- Fibroplastic proliferation score [1]: 0.00
- IFN-γ in exudate (ELISA) [1]: 5153.02 ± 5773.45
- IL-6 in exudate (ELISA) [1]: 1740.11 ± 765.02
- Inflammation score [1]: 2.00
- Leukocyte count in exudate [1]: 1.91e+06 mL⁻¹
- Lymphocyte count in exudate [1]: 50000 mL⁻¹
- Monocyte count in exudate [1]: 1.58e+06 mL⁻¹
- Neutrophil count in exudate [1]: 190000 mL⁻¹
- Sum (of histology scores) [1]: 6.00
- Exudate volume [2]: 2.93 ± 0.06 mL
- Pouch Wall Weight [2]: 0.44 ± 0.07 g
- pouch wall fibrous tissue proliferation (in words) (histology): no fibrous tissue proliferation
- pouch wall inflammatory / lymph cell infiltration (in words) (histology): a lot of
- pouch wall interstitial edema (in words) (histology): mild to moderate

Reference: patent publication US11672792B2, “Topical formulations comprising montelukast and combinations with mussel adhesive proteins” (ENLITISA (SHANGHAI) PHARMACEUTICAL CO., LTD, priority 2017, dated 2023)
